Patent US20210137119A1 (priority 2017, published 2021)
Where two headings read alike, the source gives them in different places.

System: Fusarium graminearum in wheat
Assay type: in vivo
[1] = Trial 1, dosage mL/Ha: benzovindiflupyr 200, phenamacril 1500, combination 200 + 1500
[2] = Trial 2, dosage mL/Ha: benzovindiflupyr 200, phenamacril 1500, combination 200 + 1500
[3] = Trial 3, dosage mL/Ha: benzovindiflupyr 200, phenamacril 1500, combination 150 + 1250
[4] = Trial 4, dosage mL/Ha: benzovindiflupyr 200, phenamacril 1500, combination 150 + 1250

Compound | % disease control of Fusarium graminearum in wheat at 3DAA, Actual [1] [%] | % disease control of Fusarium graminearum in wheat at 7DAA, Actual [2] [%] | % disease control of Fusarium graminearum in wheat at 3DAA, Actual [3] [%] | % disease control of Fusarium graminearum in wheat at 7DAA, Actual [4] [%]
Cn1cc(C(=O)Nc2cccc3c2[C@@H]2CC[C@H]3C2=C(Cl)Cl)c(C(F)F)n1 (racemic) [Benzovindiflupyr, N-[(1RS,4SR)-9-(dichloromethylene)-1,2,3,4-tetrahydro-1,4-methanonaphthalen-5-yl]-3-(difluoromethyl)-1-methylpyrazole-4-carboxamide] | 27 | 27 | 27 | 27
CCOC(=O)C(C#N)=C(N)c1ccccc1 [Phenamacril, ethyl (2EZ)-3-amino-2-cyano-3-phenylacrylate] | 83.5 | 83.5 | 83.5 | 83.5
